How the values were obtained:
[1] = Population pharmacokinetics of vancomycin in neonates (hierarchical Bayesian one-compartment model); format: in vivo
From the text: Briefly, in step 305, a one-compartment linear disposition model with zero order input (one hour intravenous infusion) and first-order elimination was used to describe the data collected in step 301. In step 303 Weight (Wt) and estimated glomerular filtration rate (EGFR) were included as covariates on clearance (CL), and weight was included as covariate on volume of distribution (V). Back in step 305, a lognormal distribution was used to describe the between-subject-variability (BSV) in model parameter estimates CL and V, as expressed in Equation 8 and Equation 9.
where CLi and Vi are the true parameters for the individual, CLtypical and Vtypical are the population value of the parameters, and ηCL and ηv denote the deviation between the typical value of the parameters and the true parameter value of an individual. The coefficient that describes the relationship between EGFR and CLtypical is denoted by CLEGFR. […] In Table 1, PM indicates posterior median; LCI indicates lower credible interval; and UCI indicates upper credible interval. In other embodiments, based on different datasets or different training approaches, the parameter values are expected to differ to some degree.

[2] = cited from earlier work

CN[C@H](CC(C)C)C(=O)N[C@H]1C(=O)N[C@@H](CC(N)=O)C(=O)N[C@H]2C(=O)N[C@H]3C(=O)N[C@H](C(=O)N[C@H](C(=O)O)c4cc(O)cc(O)c4-c4cc3ccc4O)[C@H](O)c3ccc(c(Cl)c3)Oc3cc2cc(c3O[C@@H]2O[C@H](CO)[C@@H](O)[C@H](O)[C@H]2O[C@H]2C[C@](C)(N)[C@H](O)[C@H](C)O2)Oc2ccc(cc2Cl)[C@H]1O [vancomycin]
Interindividual variability CL, posterior median ([1]; in vivo): 22.9 % CV | Interindividual variability V, posterior median ([1]; in vivo): 15.4 % CV | Residual variability, proportional, posterior median ([1]; in vivo): 17.3 % CV | CLtypical, posterior median ([1]; typical individual 2.9 kg, estimated glomerular filtration rate of 30 mL/min per 1.73 m^2, one hour intravenous infusion): 0.167 L/h | patients with AUC0-24 hr exceeding 600 ([2]; current practice): over 30% | final target attainment ([2]; with TDM): ~45% | neonates that initially achieve recommended target concentrations ([2]; with dosing nomograms, studies across the US and Europe): 37%
